Earlier results, collected in US20140328890A1, “Silver Iodate Compounds Having Antimicrobial Properties” (priority 2010, published 2014).

Details: published literature

Compound: [Ag+].[Ag+].[Ag+].[Ag+].[Ag+].[O-][I+]([O-])([O-])([O-])([O-])[O-] [Ag5IO6, pentasilver hexaoxoiodate]
- sensitivity to light and air: insensitive to light and air
